Data reported in patent US8258309B2, “Azapeptide derivatives” (priority 2007, dated 2012).
Read-outs that look alike come from different tables or passages of the source.

How the values were obtained:
[1] = Microsomal assay: stability in human liver microsomes; format: in vitro ADME; settings: for half-life at 1 μM: liver microsomes; for half-life as compared to atazanavir: human liver microsomes, first run
Description: Microsomal Assay. Human liver microsomes (20 mg/mL, pool of 50 individuals) were obtained from Xenotech LLC (Lenexa, Kans.). The incubation mixtures are prepared as follows. Stock solutions (10 mM) solutions of test Compounds 103, 106, 122 and of atazanavir were prepared in DMSO. The 10 mM stock solutions were diluted to 1 mM in acetonitrile (ACN). […] The microsome-test compound mixtures were added to wells of a 2 mL 96-well deep well polypropylene plate in triplicate. The plate was warmed to 37° C. before initiating the reactions by addition of prewarmed NADPH in 0.1 M potassium phosphate buffer, pH 7.4, containing 3 mM MgCl2. The final reaction mixture composition contained: • Liver Microsomes 0.5 mg/mL • NADPH 2 mM • Potassium Phosphate, pH 7.4 100 mM • Magnesium Chloride 3 mM • Test Compound 1.0 μM. The reaction mixtures were incubated at 37° C. and 50 μL aliquots were removed at 0, 3, 7, 12, 20, and 30 minutes and added to shallow-well 96-well plates which contained 50 μL of ice-cold ACN with internal standard to stop the reactions. The plates were stored at −20° C. for 30 minutes, after which 100 μL of water was added to the wells of the plate before centrifugation to pellet precipitated proteins. Supernatants were transferred to another 96-well plate and analyzed for amounts of parent remaining by LC-MS/MS using an Applied Biosystems API 4000 mass spectrometer. […] Data analysis was performed using Microsoft Excel Software. […] The results are shown in FIGS. 2 and 3 and in Table 3, below: […]

[2] = tested on: HIV-1RF; test: HIV anti-viral activity in CEM-SS cells infected with HIV-1 (XTT); format: cell-based
Description: The HIV antiviral activity of compound of the present invention was tested in CEM-SS cells infected with HIV-1. CEM-SS cells were passaged in T-75 flasks in RPMI 1640 medium supplemented with 10% heat inactivated fetal bovine serum, 2 mmol/L L-glutamine, 100 U/mL penicillin and 100 flg/mL streptomycin prior to use in the antiviral assay. On the day preceding the assay, the cells were split 1:2 to assure they were in an exponential growth phase at the time of infection. Total cell and viability quantification was performed using a hemocytometer and Trypan Blue dye exclusion. Cell viability was greater than 95% for the cells to be utilized in the assay. The cells were resuspended at 5×10^4 cells per mL in tissue culture medium and added to the drug-containing microtiter plates in a volume of 50 μL.
The virus used for the assay was the lymphocyte-tropic virus strain HIV-IRF. The virus was obtained from the NIH AIDS Research and Reference Reagent Program and stock virus pools were produced in CEM-SS cells. A pre-titered aliquot of virus was removed from the freezer (−80° C.) and allowed to thaw slowly to room temperature in a biological safety cabinet. Virus was resuspended and diluted into tissue culture medium such that the amount of virus added to each well in a volume of 50 μL was the amount determined to yield 85 to 95% cell killing at 6 days post-infection.
Each plate contains cell control wells (cells only), virus control wells (cells plus virus), compound toxicity wells (cells plus compound only), compound colorimetric control wells (compound only) as well as experimental wells (compound plus cells plus virus). Samples were tested in triplicate with eleven half-log dilutions per compound starting at 0.1 μM of compound. Compounds 104, 120 and 122 were tested, as was atazanavir and AZT. […]
Following incubation at 37° C. in a 5% CO2 incubator, the test plates were stained with the tetrazolium dye XTT (2,3-bis(2-methoxy-4-nitro-5sulfophenyl)-5-[(phenylamino)carbonyl]-2H-tetrazolium hydroxide). XTT-tetrazolium was metabolized by the mitochondrial enzymes of metabolically active cells to a soluble formazan product, allowing rapid quantitative analysis of the inhibition of HIV induced cell killing by anti-HIV test substances. XTT solution was prepared daily as a stock of 1 mg/mL in RPMI 1640. Phenazine methosulfate (PMS) solution was prepared at 0.15 mg/mL in PBS and stored in the dark at −20° C. XTT/PMS stock was prepared immediately before use by adding 40 μL of PMS per mL of XTT solution. Fifty microliters of XTT/PMS was added to each well of the plate and the plate was reincubated for 4 hours at 37° C. Plates were sealed with adhesive plate sealers and shaken gently or inverted several times to mix the soluble formazan product and the plate was read spectrophotometrically at 450/650 nm with a Molecular Devices Vmax plate reader.
Raw data was collected from the Softmax Pro 4.6 software and imported into a Microsoft Excel 2003 spreadsheet for analysis by linear curve fit calculations.

[3] = human, pH 7.4, human liver microsomes, repeated assay (Table 3), read-out: t1/2 (min) Avg ± SD (n = 3)
[4] = human, pH 7.4, human liver microsomes 0.5 mg/mL, 1.0 μM test compound, first run (Table 2), read-out: T1/2 ± SD
[5] = No Serum Protein Added (cell culture medium)

Q: Which half-life at 1 μM [1, 3] does the source give for `[2H]C([2H])([2H])OC(=O)N[C@H](C(=O)N[C@@H](Cc1ccccc1)[C@@H](O)CN(NC(=O)[C@@H](NC(=O)OC)C(C)(C)C)C([2H])([2H])c1ccc(-c2ccccn2)cc1)C(C([2H])([2H])[2H])(C([2H])([2H])[2H])C([2H])([2H])[2H]` [Compound 123, 1-Methyl-14-(methyl-d3)(3S,8S,9S,12S)-3-(1,1-dimethylethyl)-12-[(1,1-dimethylethyl)-d9]-8-hydroxy-4,11-dioxo-9-(phenylmethyl)-6-[[4-(2-pyridinyl)phenyl]methyl-2]-2,5,6,10,13-pentaazatetradecanedioate] here?
A: 23.9 ± 0.8 min

Q: What does the source list for `[2H]C([2H])([2H])OC(=O)N[C@H](C(=O)N[C@@H](Cc1ccccc1)[C@@H](O)CN(Cc1ccc(-c2ccccn2)cc1)NC(=O)[C@@H](NC(=O)OC([2H])([2H])[2H])C(C)(C)C)C(C)(C)C` [Compound 103, 1,14-Di(methyl-d3)(3S,8S,9S,12S)-3,12-bis(1,1-dimethylethyl)-8-hydroxy-4,11-dioxo-9-(phenylmethyl)-6-[[4-(2-pyridinyl)phenyl]methyl]-2,5,6,10,13-pentaazatetradecanedioate]?
A: half-life as compared to atazanavir [1]: increased half-life; % change in t1/2 ([1]; human, 1 μM, pH 7.4): −9%; half-life at 1 μM [1, 4]: 20.2 ± 4.22 min; half-life at 1 μM [1, 3]: 17.2 ± 0.9 min

Q: With `[2H]C([2H])([2H])C([C@H](NC(=O)OC)C(=O)N[C@@H](Cc1ccccc1)[C@@H](O)CN(Cc1ccc(-c2ccccn2)cc1)NC(=O)[C@@H](NC(=O)OC)C(C([2H])([2H])[2H])(C([2H])([2H])[2H])C([2H])([2H])[2H])(C([2H])([2H])[2H])C([2H])([2H])[2H]` [Compound 106, 1,14-Dimethyl(3S,8S,9S,12S)-3,12-bis[(1,1-dimethylethyl)-d9]-8-hydroxy-4,11-dioxo-9-(phenylmethyl)-6-[[4-(2-pyridinyl)phenyl]methyl]-2,5,6,10,13-pentaazatetradecanedioate] as the compound, how does the “half-life as compared to atazanavir” value [1] read?
A: increased half-life

Q: And the “increase in half-life as compared to atazanavir” value ([1]; human, 1 μM, pH 7.4)?
A: approximately 40%

Q: What about the half-life at 1 μM [1, 4] of the same compound?
A: 26.1 ± 0.99 min

Q: And the half-life at 1 μM [1, 3]?
A: 25.6 ± 0.6 min

Q: What does the source list for `Cc1cn([C@H]2C[C@H](N=[N+]=[N-])[C@@H](CO)O2)c(=O)[nH]c1=O` [AZT, reference compound]?
A: EC50 ([2]; +0.5 mg/mL AAGP): 1 nM; EC50 ([2]; +10 mg/mL HAS): 2 nM; EC50 ([2]; +AAGP + HSA): 2 nM; EC50 [2, 5]: 2 nM

Q: With `[2H]C([2H])([2H])OC(=O)N[C@H](C(=O)N[C@@H](Cc1ccccc1)[C@@H](O)CN(NC(=O)[C@@H](NC(=O)OC([2H])([2H])[2H])C(C([2H])([2H])[2H])(C([2H])([2H])[2H])C([2H])([2H])[2H])C([2H])([2H])c1ccc(-c2ccccn2)cc1)C(C([2H])([2H])[2H])(C([2H])([2H])[2H])C([2H])([2H])[2H]` [Compound 131, 1,14-Di(methyl-d3)(3S,8S,9S,12S)-3,12-bis[(1,1-dimethylethyl)-d9]-8-hydroxy-4,11-dioxo-9-(phenylmethyl)-6-[[4-(2-pyridinyl)phenyl]methyl-d2]-2,5,6,10,13-pentaazatetradecanedioate] as the compound, how does the half-life at 1 μM [1, 3] read?
A: 30.9 ± 1.4 min

Q: For `[2H]C([2H])(c1ccc(-c2ccccn2)cc1)N(C[C@H](O)[C@H](Cc1ccccc1)NC(=O)[C@@H](NC(=O)OC)C(C([2H])([2H])[2H])(C([2H])([2H])[2H])C([2H])([2H])[2H])NC(=O)[C@@H](NC(=O)OC)C(C)(C)C` [Compound 111, 1,14-Dimethyl(3S,8S,9S,12S)-3-(1,1-dimethylethyl)-12-[(1,1-dimethylethyl)-d9]-8-hydroxy-4,11-dioxo-9-(phenylmethyl)-6-[[4-(2-pyridinyl)phenyl]methyl-d2]2,5,6,10,13-pentaazatetradecanedioate], which half-life at 1 μM [1, 3] is on record?
A: 23.9 ± 0.3 min

Q: For “1,14-Dimethyl(3S,8S,9S,12S)-3-(1,1-dimethylethyl)-12-[(1,1-dimethylethyl)-d9]-8-hydroxy-4,11-dioxo-9-(phenylmethyl)-6-[[4-(2-pyridinyl)phenyl]methyl]-2,5,6,10,13-pentaazatetradecanedioate [Compound 104]”, which “fold increase of EC50 in the presence of AAGP” value ([2]; 0.5 mg/mL AAGP versus cell culture medium) is on record?
A: greater than 7 fold

Q: What about the “fold less potent in the presence of HSA than in cell culture medium alone” value ([2]; 10 mg/mL HSA versus cell culture medium) of the same compound?
A: two- to greater than three-fold less potent

Q: What about the EC50 ([2]; +0.5 mg/mL AAGP) of the same compound?
A: 2 nM

Q: What about the EC50 ([2]; +10 mg/mL HAS) of the same compound?
A: 0.9 nM

Q: And the EC50 ([2]; +AAGP + HSA)?
A: 4 nM

Q: What about the “fold decrease of antiviral activity in the presence of AAGP plus HSA” value ([2]; AAGP plus HSA versus cell culture medium) of the same compound?
A: greater than 13 fold

Q: What about the EC50 [2, 5] of the same compound?
A: < 0.3 nM

Q: And the “t1/2 (min) Avg ± SD (n = 3)” value ([1]; human, microsomes)?
A: 23.3 ± 0.4 min

Q: With `[2H]C([2H])([2H])OC(=O)N[C@H](C(=O)N[C@@H](Cc1ccccc1)[C@@H](O)CN(Cc1ccc(-c2ccccn2)cc1)NC(=O)[C@@H](NC(=O)OC([2H])([2H])[2H])C(C([2H])([2H])[2H])(C([2H])([2H])[2H])C([2H])([2H])[2H])C(C)(C)C` [Compound 121, 1,14-Di(methyl-d3)(3S,8S,9S,12S)-3-[(1,1-dimethylethyl)-d9]-12-(1,1-dimethylethyl)-8-hydroxy-4,11-dioxo-9-(phenylmethyl)-6-[[4-(2-pyridinyl)phenyl]methyl]-2,5,6,10,13-pentaazatetradecanedioate] as the compound, how does the half-life at 1 μM [1, 3] read?
A: 18.8 ± 1.5 min
